From PMC8147214, “Identification and Characterization of a Novel, Cold-Adapted D-Xylobiose- and D-Xylose-Releasing Endo-β-1,4-Xylanase from an Antarctic Soil Bacterium, Duganella sp. PAMC 27433” (Biomolecules, 2021)

Test system: T1, rXylR
T1 construct: gene XylR; mature GH10 xylanase, signal peptide (1-23) removed, N-terminal His6 tag (pET-28a(+)) kept; E. coli BL21; precursor 373 aa; mature N-terminus AEDTPEP by primer
Assay: p-nitrophenol release, Michaelis-Menten non-linear regression
Format: biochemical, Duganella sp. PAMC 27433
Details: 50 mM sodium phosphate pH 5.5, 40 °C; substrate 1-10 mM
Text: p-nitrophenol release, Michaelis-Menten non-linear regression on rXylR

O=[N+]([O-])c1ccc(O[C@@H]2O[C@H](CO)[C@@H](O[C@@H]3O[C@H](CO)[C@@H](O)[C@H](O)[C@H]3O)[C@H](O)[C@H]2O)cc1 [pNP-β-D-cellobioside]
Km: 1210 µM
